Patent publication US20090118135A1, “METHODS AND COMPOUNDS FOR REGULATING APOPTOSIS” (The Burnham Institute, priority 2007, published 2009)

Target: T1, GST-Bfl-1 (Homo sapiens, UniProt Q16548)
T1 construct: lacking their C-terminal transmembrane domains (about the last 20 amino acids) (“ΔTM”); made in house; host or cells: XL-1 Blue E. coli, pGEX 4T-1
T1 sequence (Q16548 1-155 limits assumed): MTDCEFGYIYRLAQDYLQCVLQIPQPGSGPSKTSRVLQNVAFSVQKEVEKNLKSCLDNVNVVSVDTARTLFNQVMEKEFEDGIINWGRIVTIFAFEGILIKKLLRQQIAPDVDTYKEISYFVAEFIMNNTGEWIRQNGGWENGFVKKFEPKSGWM
Test: Bfl-1/FITC-Bid BH3 competitive fluorescence polarization assay
Format: binding
Conditions: primary HTS hits, MLSCN library (PubChem SIDs), Table 5B
Procedure: A FPA was performed to determine the binding affinity of FITC-Bid BH3 peptide to Bcl-2 proteins. […] IC50 determinations were performed using GraphPad Prism software (GraphPad, Inc., San Diego, Calif.). FPA competition assays were performed using the same procedure described above, except that 100 nM of GST-Bfl-1 protein in a volume of 45 μl was incubated with 5 μl (50 μM) test compounds in DMSO per well for 30 min prior to addition of 50 μl (5 nM) FITC-Bid BH3 peptide. The final DMSO concentration was 5% when the reactions brought to fall volume of 100 μl. Fluorescence polarization was measured after 10 min. Compounds that reduced the fluorescence polarization by 50% were considered hits.

Which results are given for `O=S(=O)(c1ccccc1)N(CC(O)CN1CCCCC1)c1ccccc1` (stereo not drawn) [Compound 859970]?
% Activity: 53.9%; FRatio: 0.98

With `Cc1cc(OCC(=O)Nc2ccc(N3CCCC3)cc2)cc(C)c1Cl` [Compound 14734365] as the compound, how does the “% Activity” value read?
The value was 59.3%.

And the FRatio?
The FRatio was 0.71.

How did the “% Activity” value turn out when `O=C(OCC(=O)N1CCN(C(=O)c2ccco2)CC1)c1cc(-c2ccco2)nc2ccccc12` [Compound 14745657] was run?
The value was 73.4%.

What about the FRatio of the same compound?
Its FRatio is 0.97.

With `N=c1c(C(=O)NCC2CCCO2)cc2c(=O)n3ccccc3nc2n1Cc1cccnc1` (stereo not drawn) [Compound 844196] as the compound, how does the “% Activity” value read?
The value was 63.4%.

And the FRatio?
The FRatio was 0.93.

`O=C(Nc1ccc2nc(-c3ccco3)c(-c3ccco3)nc2c1)N1CCCCCC1` [Compound 4258795] was tested. Which “% Activity” value did it give?
Its value is 83.2%.

What about the FRatio of the same compound?
Its FRatio is 0.96.

Which “% Activity” value does the source give for `Oc1ccc(C2=Nn3c(nnc3-c3ccco3)SC2)cc1O` [Compound 17401638] here?
The value was 56.6%.

What about the FRatio of the same compound?
The FRatio was 0.82.

With `C=CCSc1nnc2nc3c(nn12)c1cc(C)ccc1n3CC=C` [Compound 7973953] as the compound, how does the “% Activity” value read?
Its value is 69.4%.

What about the FRatio of the same compound?
Its FRatio is 0.82.

Which “% Activity” value does the source give for `CC1(C)CCCN(C(=O)c2coc(=O)c(Br)c2)C1` [Compound 862800] here?
The value was 80.8%.

What about the FRatio of the same compound?
Its FRatio is 0.65.

`c1ccc(-c2nn3c(Cn4nnc5ccccc54)nnc3s2)nc1` [Compound 865899] was tested. Which “% Activity” value did it give?
Its value is 82.6%.

What about the FRatio of the same compound?
Its FRatio is 1.32.

`Cc1c(Cl)cnc(NC(=O)COC(=O)C(NC(=O)c2ccco2)C(C)C)c1Cl` (stereo not drawn) [Compound 3711777] was tested. Which “% Activity” value did it give?
The value was 108.1%.

And the FRatio?
The FRatio was 0.66.

What does the source list for `COC(=O)c1[nH]c2cccc(OC)c2c1NC(=O)CCN1CCC(C(N)=O)CC1` [Compound 863493]?
% Activity: 71.7%; FRatio: 0.76

How did the “% Activity” value turn out when `COc1ccc(S(=O)(=O)N2Cc3ccccc3CC2C(=O)O)cc1` (stereo not drawn) [Compound 16953199] was run?
Its value is 53%.

What about the FRatio of the same compound?
Its FRatio is 0.85.

What does the source list for `CSc1ccccc1NC(=O)c1noc2c1CCC2` [Compound 4244309]?
% Activity: 75.7%; FRatio: 0.44

How did the “% Activity” value turn out when `O=C(COC(=O)Cc1ccccc1)Nc1ncc(Cl)cc1Cl` [Compound 14744122] was run?
The value was 58.8%.

What about the FRatio of the same compound?
The FRatio was 1.03.

Which “% Activity” value does the source give for `O=C(COC(=O)CC12CC3CC(CC(C3)C1)C2)Nc1ncc(Cl)cc1Cl` [Compound 14744137] here?
The value was 52%.

What about the FRatio of the same compound?
Its FRatio is 1.16.

Which “% Activity” value does the source give for `Cc1cc(C)c(NC(=O)C2=CC3C(N=C4SC=CN43)S2)c(C)c1` (stereo not drawn) [Compound 3712588] here?
The value was 66.1%.

What about the FRatio of the same compound?
Its FRatio is 1.05.

Which results are given for `c1nnnn1C12CC3CC(CC(C3)C1)C2` [Compound 14725293]?
% Activity: 60.7%; FRatio: 0.98

Which “% Activity” value does the source give for `O=C1c2ccccc2CC1Sc1nnc(-c2ccccn2)o1` (stereo not drawn) [Compound 842657] here?
Its value is 65.7%.

And the FRatio?
The FRatio was 1.17.

Which results are given for `Oc1ccc(-c2cn3c(n2)SCC3)cc1O` [Compound 14746201]?
% Activity: 77.7%; FRatio: 0.91

What does the source list for `COCCn1c(SCC(=O)Nc2ncc(Cl)c(C)c2Cl)nc2ccccc21` [Compound 3717339]?
% Activity: 64.7%; FRatio: 0.94

What does the source list for `CN(CC(=O)Nc1c(Cl)cccc1Cl)C(=O)CCCN1C(=O)c2ccccc2C1=O` [Compound 17388283]?
% Activity: 57.1%; FRatio: 0.97

How did the “% Activity” value turn out when `COc1ccc(NC(=O)c2cnn3c(C(F)(F)F)cc(-c4ccco4)nc23)cc1OC` [Compound 7974080] was run?
The value was 52%.

And the FRatio?
Its FRatio is 0.9.

For `c1cc2c3c(cccc3c1)NC1(CCCCC1)N2` [Compound 14724643], which “% Activity” value is on record?
Its value is 52.7%.

What about the FRatio of the same compound?
Its FRatio is 0.82.

With `CC(=O)Nc1ccc(OC(=O)CC2SC(=O)NC2=O)cc1` (stereo not drawn) [Compound 860139] as the compound, how does the “% Activity” value read?
The value was 68.2%.

What about the FRatio of the same compound?
Its FRatio is 1.06.

For `CC(=O)C1=C(C)OC(N)=C(C#N)C1c1ccco1` (stereo not drawn) [Compound 857779], which “% Activity” value is on record?
Its value is 65.4%.

And the FRatio?
Its FRatio is 1.13.

With `Cc1ccc(-n2c(SCc3cc(=O)n4ccsc4n3)nnc2-c2cccnc2)c(C)c1` [Compound 3712302] as the compound, how does the “% Activity” value read?
The value was 80.3%.

What about the FRatio of the same compound?
The FRatio was 0.96.

With `Cc1ccc(O)c(/N=C/C2=C(O)c3ccccc3C2=O)c1` [Compound 7974116] as the compound, how does the “% Activity” value read?
Its value is 56%.

And the FRatio?
The FRatio was 0.92.

Which results are given for `CCOc1ccc2nc(O)c(O)nc2c1` [Compound 4261310]?
% Activity: 69.6%; FRatio: 1.46

Which results are given for `N#Cc1ccccc1CN1C(=O)S/C(=C/c2cccn2-c2ccc(C(=O)O)cc2)C1=O` [Compound 17385953]?
% Activity: 63.5%; FRatio: 0.75

Which results are given for `O=C1NC(=O)[C@]2(Cc3ccccc3N3CCN(c4ccccc4)CC32)C(=O)N1c1ccccc1` (stereo partly drawn) [Compound 865821]?
% Activity: 53.1%; FRatio: 1.21

What does the source list for `Cc1cc(C)c2cc3c(ccn3C3OC[C@H](O)[C@H](O)[C@H]3O)cc2n1` (stereo partly drawn) [Compound 4247900]?
% Activity: 52.1%; FRatio: 1.1

What does the source list for `CCCCCc1nnc(NC(=O)Cc2cccs2)s1` [Compound 4259217]?
% Activity: 69.2%; FRatio: 0.51

Which “% Activity” value does the source give for `O=C(NCc1ccccn1)c1ccc2nc(-c3ccco3)c(-c3ccco3)nc2c1` [Compound 4245216] here?
The value was 107.1%.

And the FRatio?
The FRatio was 1.18.

`Cn1c(=O)n(C)c2cc(S(=O)(=O)Nc3ccccc3O)ccc21` [Compound 14723355] was tested. Which “% Activity” value did it give?
The value was 52.9%.

What about the FRatio of the same compound?
Its FRatio is 0.98.

`Cc1c(CN(C)C)c2c(n1Cc1ccccc1)C(=O)c1ccc(Br)cc1-2` [Compound 14742663] was tested. Which “% Activity” value did it give?
Its value is 78.5%.

And the FRatio?
Its FRatio is 0.61.

Which “% Activity” value does the source give for `COc1ccc(-c2coc3c(CN4CCCCC4)c(O)c(CN4CCCCC4)c(O)c3c2=O)cc1` [Compound 4244723] here?
The value was 82.5%.

And the FRatio?
The FRatio was 0.51.

With `CCn1ccc(C(=O)Nc2ccc(S(=O)(=O)Nc3ccccc3OC)cc2)n1` [Compound 4241115] as the compound, how does the “% Activity” value read?
Its value is 82%.

And the FRatio?
The FRatio was 0.87.

`Cc1ccccc1NC(=O)CSc1nnc(-c2ccco2)c(-c2ccco2)n1` [Compound 14742395] was tested. Which “% Activity” value did it give?
The value was 56.3%.

What about the FRatio of the same compound?
Its FRatio is 1.09.

With `Cc1ccc(C(=O)ONc2ccc(/N=N/C(=O)c3ccccc3O)cc2)cc1` [Compound 14732345] as the compound, how does the “% Activity” value read?
Its value is 108.7%.

And the FRatio?
The FRatio was 0.83.

Which “% Activity” value does the source give for `Cc1cc2c(cc1C)NC(c1c(C)n(C)n(-c3ccccc3)c1=O)C1=C(O)CC(C)(C)CC1=N2` (stereo not drawn) [Compound 4265815] here?
Its value is 58.3%.

What about the FRatio of the same compound?
The FRatio was 1.46.

`COc1ccc(C(N)CCc2ccc(C)o2)cc1` (stereo not drawn) [Compound 4244526] was tested. Which “% Activity” value did it give?
Its value is 67.6%.

What about the FRatio of the same compound?
The FRatio was 0.84.

How did the “% Activity” value turn out when `COc1ccc(NC(=O)C2CCN(c3nc(C)nc4c3CCC4)CC2)cc1` [Compound 852694] was run?
Its value is 66.2%.

What about the FRatio of the same compound?
The FRatio was 1.37.

How did the “% Activity” value turn out when `Cc1ccc(OCCSc2nnc(-c3ccncc3)n2C)cc1` [Compound 3712590] was run?
The value was 68.9%.

And the FRatio?
Its FRatio is 0.91.

Which “% Activity” value does the source give for `COc1cc(CNCCc2c[nH]c3ccccc23)ccc1OCc1ccc(F)cc1` [Compound 17386700] here?
The value was 76.5%.

What about the FRatio of the same compound?
The FRatio was 0.84.

How did the “% Activity” value turn out when `C=CCN1C(=O)/C(=C2/C(=O)N(CC(=O)O)c3ccccc32)S/C1=N\c1nccs1` [Compound 17401584] was run?
The value was 131.8%.

And the FRatio?
The FRatio was 0.83.

Which “% Activity” value does the source give for `COCCN1CCN2C(=NC3CC(NC(=O)NC4CCCCC4)CCC32)C1` (stereo not drawn) [Compound 865452] here?
The value was 79.7%.

And the FRatio?
The FRatio was 0.73.

With `COc1ccc(OC)c(N2C(=O)[C@@H]3C(c4ccccc4Cl)=NO[C@@H]3C2=O)c1` [Compound 864036] as the compound, how does the “% Activity” value read?
Its value is 68.5%.

And the FRatio?
The FRatio was 0.89.

Which results are given for `O=C(c1cnccn1)N1CCc2ccccc21` [Compound 3713383]?
% Activity: 80.1%; FRatio: 0.72
